We go through one molecule from the NIST ThermoML archive (doi:10.1016/j.jct.2016.11.032).

The conditions of data set [1]: Crystal; DTA.
The nature of data set [2]: Molar enthalpy of transition or fusion. To be noted: Crystal; DSC.

± gives the expanded uncertainty stated by the source.

For the molecule `CC(C)(C)C(O)(CCc1ccc(Cl)cc1)Cn1cncn1` (configuration not stated) [tebuconazole], the Normal melting temperature in data set [1] turned out to be 100.32 ± 1.1 °C. Moreover, the “Molar enthalpy of transition or fusion” value in data set [2] came out at 6.92 ± 0.237 kcal/mol.
